According to patent US20220054451A1, “2,3-DIHYDROBENZO[b]THIOPHENE DERIVATIVES AS HYPOXIA INDUCIBLE FACTOR-2(ALPHA) INHIBITORS” (NiKang Therapeutics, Inc., priority 2018, published 2022):

Target: T1, HIF-2α (Homo sapiens, UniProt Q99814)
T1 construct: endogenous in cells; host or cells: 786-O cells
Assay: VEGF ELISA assay: VEGF expression in 786-O cells
Format: cell-based
Conditions: VEGF concentration in culture medium by ELISA, compounds from 10 uM down to 1 nM, treated twice, medium collected 24 hours after second treatment
Protocol: The ability of the disclosed compounds to inhibit HIF-2α was measured by determining VEGF expression in 786-O cells. About 7500 786-O cells were seeded into each well of a 96-well, white, clear bottom plate (07-200-566, Fisher Scientific) with 200 ul growth medium. Four hours later, compounds were dispensed into wells by Tecan D300e digital dispenser with starting concentration of 10 uM and ½ log of dilution down to 1 nM as final concentration. Each concentration of treatment was performed in duplicate. About 20 hours later, medium was removed and fresh medium was added, followed by compounds treatment as described above. 24 hours later, cell culture medium was collected to determine VEGF concentration using an ELISA kit (R&D systems, cat #DVE00) following the manufacturer's instruction.
The IC50 is calculated by GraphPad Prism using the dose-response-inhibition (four parameter) equation. The plate with cells was then subjected to CellTiter-Glo luminescence cell viability assay (Promega) to determine the effect of these compounds on cell numbers after the above treatment.

T1 sequence (Q99814 whole entry): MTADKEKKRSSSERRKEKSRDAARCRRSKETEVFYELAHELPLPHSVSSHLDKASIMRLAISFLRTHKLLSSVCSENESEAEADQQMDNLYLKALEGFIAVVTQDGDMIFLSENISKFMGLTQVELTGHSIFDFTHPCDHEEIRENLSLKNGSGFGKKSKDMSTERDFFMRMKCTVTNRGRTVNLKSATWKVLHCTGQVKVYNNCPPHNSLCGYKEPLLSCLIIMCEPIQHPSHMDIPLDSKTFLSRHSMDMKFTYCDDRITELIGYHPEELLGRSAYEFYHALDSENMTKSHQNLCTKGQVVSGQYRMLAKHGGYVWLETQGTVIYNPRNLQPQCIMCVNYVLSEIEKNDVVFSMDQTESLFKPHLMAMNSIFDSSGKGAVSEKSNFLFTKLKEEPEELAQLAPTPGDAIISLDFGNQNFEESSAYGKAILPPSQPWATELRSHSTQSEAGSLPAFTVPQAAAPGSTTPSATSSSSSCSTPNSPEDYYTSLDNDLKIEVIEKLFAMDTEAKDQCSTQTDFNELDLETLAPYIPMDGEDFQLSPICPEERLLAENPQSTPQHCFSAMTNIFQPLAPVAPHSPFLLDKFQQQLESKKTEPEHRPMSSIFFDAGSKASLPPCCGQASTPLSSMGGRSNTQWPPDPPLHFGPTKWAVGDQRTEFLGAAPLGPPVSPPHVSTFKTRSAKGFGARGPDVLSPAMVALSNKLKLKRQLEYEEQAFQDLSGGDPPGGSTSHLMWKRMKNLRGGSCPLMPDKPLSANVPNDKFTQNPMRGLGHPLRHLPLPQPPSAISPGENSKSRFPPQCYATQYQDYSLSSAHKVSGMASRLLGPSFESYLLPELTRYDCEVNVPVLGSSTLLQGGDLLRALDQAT

Q: `N#Cc1cc(Cl)cc(Oc2ccc3c(c2C(F)F)[S@@+]([O-])C(F)(F)[C@H]3F)c1` (single isomer, unassigned) [Compound 6d] was tested. Which EC50 did it give?
A: 0.28 µM

Q: Which EC50 does the source give for `[O-][S@@+]1c2c(ccc(Oc3cc(F)cc(F)c3)c2C(F)F)[C@H](F)C1(F)F` (single isomer, unassigned) [Compound 9a] here?
A: 0.97 µM

Q: With `[O-][S@+]1c2c(ccc(Oc3cc(F)cc(F)c3)c2C(F)F)[C@@H](F)C1(F)F` (single isomer, unassigned) [Compound 9b] as the compound, how does the EC50 read?
A: 1.2 µM

Q: Which EC50 does the source give for `[O-][S@+]1c2c(ccc(Oc3cc(F)cc(F)c3)c2C(F)F)[C@H](F)C1(F)F` (single isomer, unassigned) [Compound 9c] here?
A: 0.074 µM

Q: Which EC50 does the source give for `[O-][S@@+]1c2c(ccc(Oc3cc(F)cc(F)c3)c2C(F)F)[C@@H](F)C1(F)F` (single isomer, unassigned) [Compound 9d] here?
A: 3.27 µM

Q: For `[O-][S@@+]1c2c(ccc(Oc3cc(F)cc(Cl)c3)c2C(F)F)[C@H](F)C1(F)F` (single isomer, unassigned) [Compound 12a], which EC50 is on record?
A: 0.86 µM

Q: Which EC50 does the source give for `[O-][S@+]1c2c(ccc(Oc3cc(F)cc(Cl)c3)c2C(F)F)[C@@H](F)C1(F)F` (single isomer, unassigned) [Compound 12b] here?
A: 0.88 µM

Q: How did the EC50 turn out when `[O-][S@+]1c2c(ccc(Oc3cc(F)cc(Cl)c3)c2C(F)F)[C@H](F)C1(F)F` (single isomer, unassigned) [Compound 12c] was run?
A: 0.045 µM

Q: Which EC50 does the source give for `[O-][S@@+]1c2c(ccc(Oc3cc(F)cc(Cl)c3)c2C(F)F)[C@@H](F)C1(F)F` (single isomer, unassigned) [Compound 12d] here?
A: 1.6 µM

Q: With `N#Cc1cc(F)cc(Oc2ccc3c(c2C(F)F)[S+]([O-])C(F)(F)C3(F)F)c1` (single isomer, unassigned) [Compound 13a] as the compound, how does the EC50 read?
A: 0.037 µM

Q: With `N#Cc1cc(F)cc(Oc2ccc3c(c2C(F)F)[S+]([O-])C(F)(F)C3(F)F)c1` (single isomer, unassigned) [Compound 13b] as the compound, how does the EC50 read?
A: 0.19 µM

Q: With `N#Cc1cc(F)cc(Oc2ccc3c(c2C(F)F)[S+]([O-])C(F)(F)C3=O)c1` (stereo not shown) [Compound 1, 3-((7-(difluoromethyl)-2,2-difluoro-1-oxido-3-oxo-2,3-dihydrobenzo[b]thiophen-6-yl)oxy)-5-fluorobenzonitrile] as the compound, how does the EC50 read?
A: 0.72 µM

Q: `[O-][S+]1c2c(ccc(Oc3cc(F)cc(F)c3)c2C(F)F)C(F)(F)C1(F)F` (stereo not shown) [Compound 15, 7-(difluoromethyl)-6-(3,5-difluorophenoxy)-2,2,3,3-tetrafluoro-2,3-dihydrobenzo[b]-thiophene 1-oxide] was tested. Which EC50 did it give?
A: 0.13 µM

Q: For `N#Cc1cncc(Oc2ccc3c(c2C(F)F)[S+]([O-])C(F)(F)C3(F)F)c1` (stereo not shown) [Compound 16, 5-((7-(difluoromethyl)-2,2,3,3-tetrafluoro-1-oxido-2,3-dihydrobenzo[b]thiophen-6-yl)oxy)nicotinonitrile], which EC50 is on record?
A: 2.39 µM

Q: Which EC50 does the source give for `[O-][S+]1c2c(ccc(Oc3cncc(F)c3)c2C(F)F)C(F)(F)C1(F)F` (stereo not shown) [Compound 17, 7-(difluoromethyl)-2,2,3,3-tetrafluoro-6-((5-fluoropyridin-3-yl)oxy)-2,3-dihydrobenzo-[b]thiophene 1-oxide] here?
A: 2.13 µM

Q: Which EC50 does the source give for `[O-][S+]1c2c(ccc(Oc3cncc(Cl)c3)c2C(F)F)C(F)(F)C1(F)F` (stereo not shown) [Compound 18, 6-((5-chloropyridin-3-yl)oxy)-7-(difluoromethyl)-2,2,3,3-tetrafluoro-2,3-dihydrobenzo-[b]thiophene 1-oxide] here?
A: 1.8 µM

Q: With `[O-][S+]1c2c(ccc(OC3CC(F)(F)C3)c2C(F)F)C(F)(F)C1(F)F` (stereo not shown) [Compound 19, 6-(3,3-difluorocyclobutoxy)-7-(difluoromethyl)-2,2,3,3-tetrafluoro-2,3-dihydrobenzo[b]-thiophene 1-oxide] as the compound, how does the EC50 read?
A: 2.68 µM

Q: For `N#Cc1cc(F)cc(Oc2ccc3c(c2C(F)F)S(=O)(=O)C(F)(F)C3(F)F)c1` [Compound 20, 3-((7-(difluoromethyl)-2,2,3,3-tetrafluoro-1,1-dioxido-2,3-dihydrobenzo[b]thiophen-6-yl)oxy)-5-fluorobenzonitrile], which EC50 is on record?
A: 0.027 µM

Q: How did the EC50 turn out when `N#Cc1cc(F)cc(Oc2ccc3c(c2Cl)[S+]([O-])C(F)(F)C3(F)F)c1` (stereo not shown) [Compound 28, 3-((7-chloro-2,2,3,3-tetrafluoro-1-oxido-2,3-dihydrobenzo[b]thiophen-6-yl)oxy)-5-fluorobenzonitrile] was run?
A: 0.24 µM

Q: `N#Cc1cc(F)cc(Oc2ccc3c(c2Cl)S(=O)(=O)C(F)(F)C3(F)F)c1` [Compound 29, 3-((7-chloro-2,2,3,3-tetrafluoro-1,1-dioxido-2,3-dihydrobenzo [b]thiophen-6-yl)oxy)-5-fluorobenzonitrile] was tested. Which EC50 did it give?
A: 0.19 µM

Q: How did the EC50 turn out when `N#Cc1cc(F)cc(Oc2ccc3c(c2Br)[S+]([O-])C(F)(F)C3(F)F)c1` (stereo not shown) [Compound 30, 3-((7-bromo-2,2,3,3-tetrafluoro-1-oxido-2,3-dihydrobenzo[b]thiophen-6-yl)oxy)-5-fluorobenzonitrile] was run?
A: 0.39 µM

Q: `N#Cc1cc(F)cc(Oc2ccc3c(c2C#N)[S+]([O-])C(F)(F)C3(F)F)c1` (stereo not shown) [Compound 31, 6-(3-cyano-5-fluorophenoxy)-2,2,3,3-tetrafluoro-2,3-dihydrobenzo [b]thiophene-7-carbonitrile 1-oxide] was tested. Which EC50 did it give?
A: 0.19 µM

Q: “a mixture of 3-(((1S,3R)-7- (difluoromethyl)-2,2,3-trifluoro-1- oxido-2,3-dihydrobenzo- [b]thiophen-6-yl)oxy)-5- fluorobenzonitrile and 3-(((1R,3S)- 7-(difluoromethyl)-2,2,3- trifluoro-1-oxido-2,3-dihydrobenzo [b]thiophen-6-yl)oxy)-5- fluorobenzonitrile [Compound 3a]” was tested. Which EC50 did it give?
A: 3.5 µM

Q: For “a mixture of 3-(((1S,3S)-7- (difluoromethyl)-2,2,3-trifluoro-1- oxido-2,3-dihydrobenzo- [b]thiophen-6-yl)oxy)-5- fluorobenzonitrile and 3-(((1R,3R)- 7-(difluoromethyl)-2,2,3- trifluoro-1-oxido-2,3-dihydrobenzo [b]thiophen-6-yl)oxy)-5- fluorobenzonitrile [Compound 3b]”, which EC50 is on record?
A: 0.16 µM

Q: “a mixture of 3-fluoro-5-(((1R,3R)- 2,2,3-trifluoro-1-oxido-7- (trifluoromethyl)-2,3- dihydrobenzo[b]thiophen-4-yl)oxy) benzonitrile and 3-fluoro-5- (((1S,3S)-2,2,3-trifluoro-1- oxido-7-(trifluoromethyl)-2,3- dihydrobenzo[b]thiophen-4-yl) oxy)benzonitrile [Compound 27a]” was tested. Which EC50 did it give?
A: 9.4 µM

Q: “a mixture of 3-fluoro-5-(((1R,3R)- 2,2,3-trifluoro-7-(methylsulfonyl)- 1-oxido-2,3- dihydrobenzo[b]thiophen-4-yl)oxy) benzonitrile and 3-fluoro-5- (((1S,3S)-2,2,3-trifluoro-7- (methylsulfonyl)-1-oxido-2,3- dihydrobenzo[b]thiophen-4-yl) oxy)benzonitrile [Compound 24b]” was tested. Which EC50 did it give?
A: 18.5 µM

Q: “a mixture of 3-fluoro-5-(((1S,3R)- 2,2,3-trifluoro-1-oxido-7- (trifluoromethyl)-2,3- dihydrobenzo[b]thiophen-4-yl)oxy) benzonitrile and 3-fluoro-5- (((1R,3S)-2,2,3-trifluoro-1- oxido-7-(trifluoromethyl)-2,3- dihydrobenzo[b]thiophen-4-yl) oxy)benzonitrile [Compound 27b]” was tested. Which EC50 did it give?
A: 0.67 µM

Q: How did the EC50 turn out when “a mixture of 3-fluoro-5-(((1S,3R)- 2,2,3-trifluoro-7-(methylsulfonyl)- 1-oxido-2,3- dihydrobenzo[b]thiophen-4-yl)oxy) benzonitrile and 3-fluoro-5- (((1R,3S)-2,2,3-trifluoro-7- (methylsulfonyl)-1-oxido-2,3- dihydrobenzo[b]thiophen-4-yl) oxy)benzonitrile [Compound 24a]” was run?
A: 8.9 µM
